Assay results taken from the NIST ThermoML archive (doi:10.1016/j.jct.2013.02.023).
± gives the expanded uncertainty stated by the source.

Conditions: relaxation calorimetry - Quantum Design PPMS; for molar entropy: 101.33 kPa

O=P([O-])([O-])OP(=O)([O-])[O-].O=P([O-])([O-])OP(=O)([O-])[O-].O=P([O-])([O-])OP(=O)([O-])[O-].[Fe+3].[Fe+3].[Fe+3].[Fe+3] [iron(III) diphosphate]
molar entropy (1 K, Crystal 3): 0.07578 ± 0.012 J/K/mol
molar entropy (2 K, Crystal 3): 0.1665 ± 0.026 J/K/mol
molar entropy (3 K, Crystal 3): 0.2869 ± 0.044 J/K/mol
molar entropy (4 K, Crystal 3): 0.4556 ± 0.07 J/K/mol
molar entropy (5 K, Crystal 3): 0.6947 ± 0.11 J/K/mol
molar entropy (6 K, Crystal 3): 1.027 ± 0.16 J/K/mol
molar entropy (7 K, Crystal 3): 1.472 ± 0.23 J/K/mol
molar entropy (8 K, Crystal 3): 2.047 ± 0.31 J/K/mol
molar entropy (9 K, Crystal 3): 2.754 ± 0.42 J/K/mol
molar entropy (10 K, Crystal 3): 3.591 ± 0.13 J/K/mol
molar entropy (11 K, Crystal 3): 4.553 ± 0.17 J/K/mol
molar entropy (12 K, Crystal 3): 5.629 ± 0.2 J/K/mol
molar entropy (13 K, Crystal 3): 6.809 ± 0.25 J/K/mol
molar entropy (14 K, Crystal 3): 8.084 ± 0.29 J/K/mol
molar entropy (15 K, Crystal 3): 9.437 ± 0.34 J/K/mol
molar entropy (16 K, Crystal 3): 10.86 ± 0.39 J/K/mol
molar entropy (17 K, Crystal 3): 12.36 ± 0.45 J/K/mol
molar entropy (18 K, Crystal 3): 13.92 ± 0.5 J/K/mol
molar entropy (19 K, Crystal 3): 15.55 ± 0.56 J/K/mol
molar entropy (20 K, Crystal 3): 17.25 ± 0.62 J/K/mol
molar entropy (25 K, Crystal 3): 26.52 ± 0.96 J/K/mol
molar entropy (30 K, Crystal 2): 36.76 ± 1.3 J/K/mol
molar entropy (35 K, Crystal 2): 47.46 ± 1.7 J/K/mol
molar entropy (40 K, Crystal 2): 59.06 ± 2.1 J/K/mol
molar entropy (45 K, Crystal 2): 71.73 ± 2.6 J/K/mol
molar entropy (50 K, Crystal 1): 84.46 ± 2.8 J/K/mol
molar entropy (55 K, Crystal 1): 93.95 ± 3.1 J/K/mol
molar entropy (60 K, Crystal 1): 103.22 ± 3.4 J/K/mol
molar entropy (65 K, Crystal 1): 112.55 ± 3.7 J/K/mol
molar entropy (70 K, Crystal 1): 121.98 ± 4 J/K/mol
molar entropy (75 K, Crystal 1): 131.56 ± 4.3 J/K/mol
molar entropy (80 K, Crystal 1): 141.27 ± 4.7 J/K/mol
molar entropy (85 K, Crystal 1): 151.12 ± 5 J/K/mol
molar entropy (90 K, Crystal 1): 161.1 ± 5.3 J/K/mol
molar entropy (95 K, Crystal 1): 171.2 ± 5.7 J/K/mol
molar entropy (100 K, Crystal 1): 181.43 ± 6 J/K/mol
molar entropy (110 K, Crystal 1): 202.07 ± 6.7 J/K/mol
molar entropy (120 K, Crystal 1): 222.81 ± 7.3 J/K/mol
molar entropy (130 K, Crystal 1): 243.5 ± 8 J/K/mol
molar entropy (140 K, Crystal 1): 264.06 ± 8.7 J/K/mol
molar entropy (150 K, Crystal 1): 284.46 ± 9.4 J/K/mol
molar entropy (160 K, Crystal 1): 304.66 ± 10 J/K/mol
molar entropy (170 K, Crystal 1): 324.67 ± 11 J/K/mol
molar entropy (180 K, Crystal 1): 344.47 ± 11 J/K/mol
molar entropy (190 K, Crystal 1): 364.05 ± 12 J/K/mol
molar entropy (200 K, Crystal 1): 383.42 ± 13 J/K/mol
molar entropy (210 K, Crystal 1): 402.56 ± 13 J/K/mol
molar entropy (220 K, Crystal 1): 421.48 ± 14 J/K/mol
molar entropy (230 K, Crystal 1): 440.17 ± 15 J/K/mol
molar entropy (240 K, Crystal 1): 458.61 ± 15 J/K/mol
molar entropy (250 K, Crystal 1): 476.82 ± 16 J/K/mol
molar entropy (260 K, Crystal 1): 494.79 ± 16 J/K/mol
molar entropy (270 K, Crystal 1): 512.5 ± 17 J/K/mol
molar entropy (273.15 K, Crystal 1): 518.03 ± 17 J/K/mol
molar entropy (280 K, Crystal 1): 529.97 ± 17 J/K/mol
molar entropy (290 K, Crystal 1): 547.19 ± 18 J/K/mol
molar entropy (298.15 K, Crystal 1): 561.03 ± 19 J/K/mol
molar entropy (300 K, Crystal 1): 564.15 ± 19 J/K/mol
Triple point temperature (Crystal 2): 47.6 ± 0.1 K
Triple point temperature (Crystal 3): 27.3 ± 0.2 K
